{"source": "patent US20060130162A1", "about": "“Shrimp and the production thereof” (priority 2002, published 2006)", "test_system": "Juvenile shrimp", "assay": "Carotenoid content of shrimp fed lutein-enriched Designer Diet (HPLC carotenoid analysis)", "type": "in vivo", "parameters": "AsX (astaxanthin) content of shrimp / Lutein content of shrimp / Other carotenoid content of shrimp / Total carotenoid content of shrimp / AsX (astaxanthin) content of shrimp, Mean / Lutein content of shrimp, Mean / Other carotenoid content of shrimp, Mean / Total carotenoid content of shrimp, Mean: unit not given here", "experimental": "Juvenile shrimp (1-5 g) were cultured in 20 L tanks (5-10 shrimp per tank) at 23 degrees Celsius using standard shrimp diets (e.g., Rangen 35/2.5 shrimp diet). Test diets were prepared containing a 2:1 mixture of Rangen control feed with Lutein (Twin Labs) for a final lutein concentration in the diet of 8g/kg diet. Shrimp were fed at 0.3% body weight 2×/day for the duration of the experiment.\nFollowing 14 days of feeding, the shrimp were collected, frozen to −20° C. and lyophilized prior to chemical analysis.", "key": {"[1]": {"conditions": "Mean of lutein group, lutein 8g/kg diet, 14 days of feeding"}, "[2]": {"conditions": "individual sample, lutein 8g/kg diet, 14 days of feeding"}}, "note": "Several values for one entry are separate records, joined by “and”; a condition that tells them apart may be missing. Equal entries are not always repeated."}
{"smiles": "CC1=C[C@H](O)CC(C)(C)[C@H]1/C=C/C(C)=C/C=C/C(C)=C/C=C/C=C(C)/C=C/C=C(C)/C=C/C1=C(C)C[C@@H](O)CC1(C)C", "note": "[Lutein]", "values": [{"measurement": "A/L (astaxanthin / lutein), Mean", "setting": "[1]", "value": "2.23."}, {"measurement": "A/T (astaxanthin / total carotenoids), Mean", "setting": "[1]", "value": 53, "unit": "%"}, {"measurement": "AsX (astaxanthin) content of shrimp, Mean", "setting": "[1]", "value": 6.24}, {"measurement": "L + O/T (lutein + other / total carotenoids), Mean", "setting": "[1]", "value": 47, "unit": "%"}, {"measurement": "L/T (lutein / total carotenoids), Mean", "setting": "[1]", "value": 33, "unit": "%"}, {"measurement": "Lutein content of shrimp, Mean", "setting": "[1]", "value": 4.64}, {"measurement": "Other carotenoid content of shrimp, Mean", "setting": "[1]", "value": 1.62}, {"measurement": "Total carotenoid content of shrimp, Mean", "setting": "[1]", "value": 12.49}, {"measurement": "Effect of lutein enrichment on shrimp appearance (FIG. 1)", "setting": "before cooking and after cooking, compared with non-enriched shrimp", "value": "larger, more colorful"}, {"measurement": "A/L (astaxanthin / lutein)", "setting": "[2]", "value": "3.79 and 1.80 and 0.49 and 1.09 and 3.99"}, {"measurement": "A/T (astaxanthin / total carotenoids)", "setting": "[2]", "value": "68% and 54% and 30% and 45% and 70%"}, {"measurement": "AsX (astaxanthin) content of shrimp", "setting": "[2]", "value": "6.45 and 4.91 and 4.63 and 8.37 and 6.82"}, {"measurement": "L + O/T (lutein + other / total carotenoids)", "setting": "[2]", "value": "32% and 46% and 70% and 55% and 30%"}, {"measurement": "L/T (lutein / total carotenoids)", "setting": "[2]", "value": "18% (2×) and 30% and 61% and 41%"}, {"measurement": "Lutein content of shrimp", "setting": "[2]", "value": "1.70 and 2.73 and 9.39 and 7.65 and 1.71"}, {"measurement": "Other carotenoid content of shrimp", "setting": "[2]", "value": "1.38 and 1.40 and 1.47 and 2.70 and 1.15"}, {"measurement": "Total carotenoid content of shrimp", "setting": "[2]", "value": "9.53 and 9.04 and 15.49 and 18.72 and 9.68"}]}
